Reference: ChEMBL document CHEMBL6115017, “Discovery of DFV890, a Potent Sulfonimidamide-Containing NLRP3 Inflammasome Inhibitor” (J Med Chem, 2025)
Converted amounts (≈) assume the structure as drawn. The source made the active and inactive calls. The calls are words filed in the database; no cut-off is given here.

Tests used:
[1] = Fraction unbound in human plasma; type: ADME, cell-free
[2] = molecular target: Nucleotide-binding oligomerization domain-containing protein 2 (Homo sapiens) (UniProt Q9HC29); assay: Inhibition of human NOD2 inflammasome activation expressed in […] cells assessed as inhibition of L18-MDP induced NF-kappaB activation by measuring SEAP activity pretreated for 1 hr followed by induced with L18-MDP measured after 18 hrs by Spectrophotometric analysis; type: cell-based; conditions: HEK, time 19.0 hrs
Nucleotide-binding oligomerization domain-containing protein 2 (Homo sapiens), sequence (Q9HC29 whole entry, the tested form may be a part): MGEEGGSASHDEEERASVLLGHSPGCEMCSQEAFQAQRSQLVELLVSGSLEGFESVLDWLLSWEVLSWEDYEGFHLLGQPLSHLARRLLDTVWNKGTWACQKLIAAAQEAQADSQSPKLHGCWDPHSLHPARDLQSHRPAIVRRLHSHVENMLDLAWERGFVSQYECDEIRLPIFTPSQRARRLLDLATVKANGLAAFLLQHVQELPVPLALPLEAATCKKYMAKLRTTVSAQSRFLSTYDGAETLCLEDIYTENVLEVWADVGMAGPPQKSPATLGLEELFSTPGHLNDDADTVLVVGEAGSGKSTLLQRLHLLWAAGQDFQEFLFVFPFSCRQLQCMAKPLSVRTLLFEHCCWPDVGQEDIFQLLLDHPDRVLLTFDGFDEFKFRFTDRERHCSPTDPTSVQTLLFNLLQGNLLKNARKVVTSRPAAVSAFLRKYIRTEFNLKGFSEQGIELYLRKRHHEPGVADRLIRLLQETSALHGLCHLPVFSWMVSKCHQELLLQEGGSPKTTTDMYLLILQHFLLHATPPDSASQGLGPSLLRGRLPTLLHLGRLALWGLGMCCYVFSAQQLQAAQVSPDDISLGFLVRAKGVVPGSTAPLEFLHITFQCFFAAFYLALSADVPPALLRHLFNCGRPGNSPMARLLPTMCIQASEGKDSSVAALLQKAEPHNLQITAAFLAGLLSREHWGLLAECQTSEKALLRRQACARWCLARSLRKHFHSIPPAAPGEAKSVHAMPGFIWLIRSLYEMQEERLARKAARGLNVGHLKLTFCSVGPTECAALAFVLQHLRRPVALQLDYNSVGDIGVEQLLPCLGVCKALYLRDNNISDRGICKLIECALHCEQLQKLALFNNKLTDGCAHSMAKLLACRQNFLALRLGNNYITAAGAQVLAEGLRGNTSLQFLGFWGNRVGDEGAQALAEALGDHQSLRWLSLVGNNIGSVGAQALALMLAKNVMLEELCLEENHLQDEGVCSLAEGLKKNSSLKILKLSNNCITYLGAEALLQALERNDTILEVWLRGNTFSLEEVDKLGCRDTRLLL

[3] = AUC (infinity) in Sprague-Dawley rat at 5 mg/kg, po by LC-MS analysis; type: ADME, organism-based; conditions: in vivo
[4] = molecular target: T1, Cytochrome P450 2C8 (Homo sapiens, UniProt P10632); assay: Inhibition of CYP2C8 (unknown origin); type: ADME
T1 sequence (P10632 whole entry): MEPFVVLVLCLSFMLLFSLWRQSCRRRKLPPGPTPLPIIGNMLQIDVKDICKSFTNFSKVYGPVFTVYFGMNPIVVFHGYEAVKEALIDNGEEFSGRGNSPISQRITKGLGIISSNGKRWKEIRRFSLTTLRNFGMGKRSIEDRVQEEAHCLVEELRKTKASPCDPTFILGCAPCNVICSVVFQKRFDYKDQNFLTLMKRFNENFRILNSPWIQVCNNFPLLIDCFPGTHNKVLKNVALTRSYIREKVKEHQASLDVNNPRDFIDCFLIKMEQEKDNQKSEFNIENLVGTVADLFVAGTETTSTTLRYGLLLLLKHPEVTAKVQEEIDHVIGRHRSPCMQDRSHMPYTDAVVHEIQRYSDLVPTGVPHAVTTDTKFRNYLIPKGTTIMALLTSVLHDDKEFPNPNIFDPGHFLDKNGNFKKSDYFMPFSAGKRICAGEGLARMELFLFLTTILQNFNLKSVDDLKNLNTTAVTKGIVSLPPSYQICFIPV

[5] = tested on: Macrophage; assay: Inhibition of AIM2 inflammasome activation in mouse iMac assessed as inhibition of poly(dA:dT) induced IL-1beta release pretreated for 1 hr followed by induced with poly(dA:dT) measured after 2 hr incubation by HTRF analysis; type: cell-based; conditions: time 3.0 hrs
[6] = Half life in Beagle dog at 2 mg/kg, po and 1 mg/kg, iv by LC-MS analysis; type: ADME, organism-based, Canis lupus familiaris; conditions: in vivo
[7] = Metabolic stability in Cynomolgus monkey hepatocytes assessed as intrinsic clearance measured per 10^6 cells; type: ADME, cell-based, Macaca fascicularis, Hepatocyte; conditions: read-out: CLH
[8] = molecular target: Cytochrome P450 2C9 (Homo sapiens, UniProt P11712); assay: Inhibition of CYP2C9 (unknown origin); type: ADME
Cytochrome P450 2C9, sequence (P11712 whole entry): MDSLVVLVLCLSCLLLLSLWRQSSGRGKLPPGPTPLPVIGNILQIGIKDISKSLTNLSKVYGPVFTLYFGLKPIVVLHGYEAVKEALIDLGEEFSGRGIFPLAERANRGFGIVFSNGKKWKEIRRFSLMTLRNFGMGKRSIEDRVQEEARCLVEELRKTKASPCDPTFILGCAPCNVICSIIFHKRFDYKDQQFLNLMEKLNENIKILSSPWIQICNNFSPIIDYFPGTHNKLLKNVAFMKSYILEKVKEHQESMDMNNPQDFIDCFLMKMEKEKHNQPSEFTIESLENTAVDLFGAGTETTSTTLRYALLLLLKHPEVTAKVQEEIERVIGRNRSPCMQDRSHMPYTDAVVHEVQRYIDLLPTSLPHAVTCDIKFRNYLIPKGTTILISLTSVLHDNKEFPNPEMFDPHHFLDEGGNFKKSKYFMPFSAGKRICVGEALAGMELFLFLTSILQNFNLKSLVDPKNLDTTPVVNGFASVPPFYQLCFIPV

[9] = Fraction unbound in C57 BL6 mouse plasma; type: ADME, cell-free
[10] = Volume of distribution at steady state in Cynomolgus monkey at 5 mg/kg, po and 2 mg/kg, iv by LC-MS analysis; type: ADME, organism-based, Macaca fascicularis; conditions: in vivo
[11] = molecular target: T2, Cytochrome P450 2B6 (Homo sapiens, UniProt P20813); assay: Inhibition of CYP2B6 (unknown origin) by time dependent inhibition assay; type: ADME
T2 sequence (P20813 whole entry): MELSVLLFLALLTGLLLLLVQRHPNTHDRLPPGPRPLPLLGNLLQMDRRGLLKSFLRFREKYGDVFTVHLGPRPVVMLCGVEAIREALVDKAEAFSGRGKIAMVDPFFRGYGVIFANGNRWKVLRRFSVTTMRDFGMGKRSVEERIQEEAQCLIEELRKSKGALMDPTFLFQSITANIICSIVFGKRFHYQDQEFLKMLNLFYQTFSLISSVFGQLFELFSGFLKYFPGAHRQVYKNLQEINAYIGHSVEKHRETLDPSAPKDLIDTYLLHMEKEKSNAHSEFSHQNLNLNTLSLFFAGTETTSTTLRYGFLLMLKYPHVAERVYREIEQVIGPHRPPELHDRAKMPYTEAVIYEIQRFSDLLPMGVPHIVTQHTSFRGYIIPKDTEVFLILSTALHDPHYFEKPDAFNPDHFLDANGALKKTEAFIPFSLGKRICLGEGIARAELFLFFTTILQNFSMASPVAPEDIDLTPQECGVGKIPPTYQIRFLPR

[12] = tested on: THP-1; assay: Inhibition of mCerulean-tagged ASC pyroptosome formation in PMA-primed human THP-1 cells assessed as speak count pretreated for 1 hr followed by stimulated with gramicidin for 2 hrs by fluorescence imaging analysis; type: cell-based; conditions: dose 0.001-100 µM
[13] = Volume of distribution at steady state in Sprague-Dawley rat at 5 mg/kg, po by LC-MS analysis; type: ADME, organism-based; conditions: in vivo
[14] = Volume of distribution at steady state in C57 BL6 mouse at 10 mg/kg, po and 2 mg/kg, iv by LC-MS analysis; type: ADME, organism-based; conditions: in vivo
[15] = tested on: Mus musculus; assay: In vivo inhibition of NLRP3 dependent cytokine production in po dosed LPS-challenged C57BL/6 mouse model assessed as inhibition of LPS-induced IL-6 production in blood pretreated for 1 hr followed by induced with LPS measured after 5 hrs by cytokine bead assay; type: functional, organism-based; conditions: time 6.0 hrs
[16] = Thermodynamic solubility in PBS at pH 7.4; type: physicochemical; conditions: read-out: Therm_solubility
[17] = Thermodynamic solubility in PBS at pH 5; type: physicochemical; conditions: read-out: Therm_solubility
[18] = molecular target: Cytochrome P450 3A5 (Homo sapiens, UniProt P20815); assay: Inhibition of CYP3A5 (unknown origin); type: ADME
Cytochrome P450 3A5, sequence (P20815 whole entry): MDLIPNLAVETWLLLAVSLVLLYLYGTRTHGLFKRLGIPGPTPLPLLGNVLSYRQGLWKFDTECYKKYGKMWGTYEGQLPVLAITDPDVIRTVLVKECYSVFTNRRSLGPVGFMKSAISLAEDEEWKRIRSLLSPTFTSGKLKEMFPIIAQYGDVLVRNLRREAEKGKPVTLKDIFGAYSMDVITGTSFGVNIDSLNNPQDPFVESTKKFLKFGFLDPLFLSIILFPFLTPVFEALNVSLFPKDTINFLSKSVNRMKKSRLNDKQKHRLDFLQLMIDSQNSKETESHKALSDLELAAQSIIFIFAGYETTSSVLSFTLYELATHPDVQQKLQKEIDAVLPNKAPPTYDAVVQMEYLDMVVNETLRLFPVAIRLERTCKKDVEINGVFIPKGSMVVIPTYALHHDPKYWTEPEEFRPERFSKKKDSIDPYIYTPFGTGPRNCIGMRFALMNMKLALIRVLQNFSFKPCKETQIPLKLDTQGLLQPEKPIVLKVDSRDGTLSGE

[19] = molecular target: hERG (Homo sapiens, UniProt Q12809); assay: Inhibition of hERG at 30 uM relative to control; type: toxicity
hERG, sequence (Q12809 whole entry): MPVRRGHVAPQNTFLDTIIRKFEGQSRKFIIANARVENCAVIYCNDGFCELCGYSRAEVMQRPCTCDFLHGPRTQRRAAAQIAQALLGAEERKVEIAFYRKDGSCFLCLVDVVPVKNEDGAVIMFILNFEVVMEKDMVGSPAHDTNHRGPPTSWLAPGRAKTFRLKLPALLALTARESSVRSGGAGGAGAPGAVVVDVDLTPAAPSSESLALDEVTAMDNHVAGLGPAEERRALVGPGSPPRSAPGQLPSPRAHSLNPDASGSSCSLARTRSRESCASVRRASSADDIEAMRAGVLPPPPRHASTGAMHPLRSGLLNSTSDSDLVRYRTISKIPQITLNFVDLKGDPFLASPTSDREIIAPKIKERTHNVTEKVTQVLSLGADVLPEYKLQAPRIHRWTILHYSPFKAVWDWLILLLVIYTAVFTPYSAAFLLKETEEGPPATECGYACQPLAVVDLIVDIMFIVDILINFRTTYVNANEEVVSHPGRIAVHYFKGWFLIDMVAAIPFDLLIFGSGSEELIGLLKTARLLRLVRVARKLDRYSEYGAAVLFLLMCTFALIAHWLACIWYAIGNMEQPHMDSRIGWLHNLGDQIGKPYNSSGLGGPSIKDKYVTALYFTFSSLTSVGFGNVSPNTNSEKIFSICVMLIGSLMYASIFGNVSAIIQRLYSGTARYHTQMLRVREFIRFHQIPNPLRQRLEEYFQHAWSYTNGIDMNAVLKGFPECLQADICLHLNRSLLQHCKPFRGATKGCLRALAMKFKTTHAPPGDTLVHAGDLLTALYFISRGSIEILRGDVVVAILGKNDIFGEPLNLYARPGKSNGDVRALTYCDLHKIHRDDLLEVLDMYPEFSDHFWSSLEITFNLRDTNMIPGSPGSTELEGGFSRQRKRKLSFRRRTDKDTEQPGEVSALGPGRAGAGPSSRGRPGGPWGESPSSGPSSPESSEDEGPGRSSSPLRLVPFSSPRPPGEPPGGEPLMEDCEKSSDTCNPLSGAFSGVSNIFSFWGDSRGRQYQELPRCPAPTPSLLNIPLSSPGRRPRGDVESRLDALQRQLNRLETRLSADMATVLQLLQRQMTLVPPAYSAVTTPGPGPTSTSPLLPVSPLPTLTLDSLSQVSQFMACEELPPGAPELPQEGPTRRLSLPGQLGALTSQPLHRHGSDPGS

[20] = tested on: THP-1; assay: Antagonist activity against […] in PMA-primed human THP-1 cells assessed as inhibition of PrgI-induced IL-1beta release measured pretreated for 1 hr followed by induced with LFn-PrgI measured after 2 hr incubation by HTRF analysis; type: cell-based; conditions: time 3.0 hrs
[21] = Half life in Sprague-Dawley rat at 5 mg/kg, po by LC-MS analysis; type: ADME, organism-based; conditions: in vivo
[22] = Metabolic stability in mouse hepatocytes assessed as intrinsic clearance measured per 10^6 cells; type: ADME, cell-based, Hepatocyte; conditions: read-out: CLH
[23] = molecular target: Cytochrome P450 2C19 (Homo sapiens, UniProt P33261); assay: Inhibition of CYP2C19 (unknown origin); type: ADME
Cytochrome P450 2C19, sequence (P33261 whole entry): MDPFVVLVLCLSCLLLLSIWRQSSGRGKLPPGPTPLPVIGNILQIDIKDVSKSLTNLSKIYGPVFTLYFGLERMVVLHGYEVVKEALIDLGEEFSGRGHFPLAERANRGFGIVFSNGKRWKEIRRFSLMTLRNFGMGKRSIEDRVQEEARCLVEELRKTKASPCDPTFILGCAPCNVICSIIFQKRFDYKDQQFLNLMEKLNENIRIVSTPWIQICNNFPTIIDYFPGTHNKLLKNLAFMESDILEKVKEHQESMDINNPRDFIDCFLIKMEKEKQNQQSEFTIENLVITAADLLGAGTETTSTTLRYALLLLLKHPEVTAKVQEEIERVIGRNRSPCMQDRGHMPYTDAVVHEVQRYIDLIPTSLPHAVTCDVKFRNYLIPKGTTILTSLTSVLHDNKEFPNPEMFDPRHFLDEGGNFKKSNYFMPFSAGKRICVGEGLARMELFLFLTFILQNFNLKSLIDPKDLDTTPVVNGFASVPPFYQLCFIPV

[24] = Cmax in C57 BL6 mouse at 10 mg/kg, po by LC-MS analysis; type: ADME, organism-based; conditions: in vivo
[25] = tested on: Mus musculus; assay: In vivo anti-inflammatory activity against MSU crystal-induced gouty arthritis Balb/c mouse model assessed as reduction of volume of pouch exudate at 0.1 to 50 mg/kg, po single dose; type: functional, organism-based; conditions: dose 0.1-50 mg/kg
[26] = molecular target: T2, Cytochrome P450 2B6; assay: Inhibition of CYP2B6 (unknown origin); type: ADME
[27] = molecular target: Bile salt export pump (Homo sapiens, UniProt O95342); assay: Inhibition of BSEP (unknown origin) assessed as reduction in uptake rate of taurocholic acid at 5 uM relative to control; type: toxicity
Bile salt export pump, sequence (O95342 whole entry): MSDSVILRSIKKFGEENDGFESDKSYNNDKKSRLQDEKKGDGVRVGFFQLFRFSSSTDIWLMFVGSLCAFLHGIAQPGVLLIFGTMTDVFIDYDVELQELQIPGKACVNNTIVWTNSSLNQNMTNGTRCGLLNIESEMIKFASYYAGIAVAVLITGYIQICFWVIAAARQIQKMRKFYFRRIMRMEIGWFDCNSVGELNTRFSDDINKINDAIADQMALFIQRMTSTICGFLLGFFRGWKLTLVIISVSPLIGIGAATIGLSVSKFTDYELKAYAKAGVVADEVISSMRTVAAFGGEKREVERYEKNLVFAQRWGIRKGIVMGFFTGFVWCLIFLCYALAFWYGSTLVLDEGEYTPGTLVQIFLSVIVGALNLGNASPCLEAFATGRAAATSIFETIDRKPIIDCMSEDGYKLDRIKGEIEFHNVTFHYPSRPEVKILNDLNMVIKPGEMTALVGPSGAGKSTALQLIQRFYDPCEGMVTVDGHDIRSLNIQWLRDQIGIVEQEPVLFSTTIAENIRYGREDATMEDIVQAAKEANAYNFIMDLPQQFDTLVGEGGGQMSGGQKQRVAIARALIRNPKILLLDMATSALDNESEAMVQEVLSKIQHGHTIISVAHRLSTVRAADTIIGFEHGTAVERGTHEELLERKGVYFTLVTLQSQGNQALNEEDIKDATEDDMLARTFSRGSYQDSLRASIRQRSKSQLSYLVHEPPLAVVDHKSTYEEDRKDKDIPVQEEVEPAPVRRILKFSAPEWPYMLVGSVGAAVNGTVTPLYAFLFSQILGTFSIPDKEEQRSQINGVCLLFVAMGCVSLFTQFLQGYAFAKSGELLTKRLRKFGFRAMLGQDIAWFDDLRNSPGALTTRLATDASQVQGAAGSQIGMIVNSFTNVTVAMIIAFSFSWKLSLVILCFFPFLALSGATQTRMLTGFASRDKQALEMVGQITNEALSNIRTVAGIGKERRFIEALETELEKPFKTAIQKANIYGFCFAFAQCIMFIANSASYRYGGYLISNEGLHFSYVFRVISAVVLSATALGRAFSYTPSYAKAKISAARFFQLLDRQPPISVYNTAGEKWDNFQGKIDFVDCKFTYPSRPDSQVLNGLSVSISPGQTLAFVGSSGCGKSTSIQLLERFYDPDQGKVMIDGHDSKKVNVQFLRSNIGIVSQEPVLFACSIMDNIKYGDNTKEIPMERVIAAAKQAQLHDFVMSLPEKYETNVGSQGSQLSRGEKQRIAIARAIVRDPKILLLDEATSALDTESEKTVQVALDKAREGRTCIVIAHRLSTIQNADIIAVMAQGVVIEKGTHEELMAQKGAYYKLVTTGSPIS

[28] = Volume of distribution at steady state in Beagle dog at 2 mg/kg, po and 1 mg/kg, iv by LC-MS analysis; type: ADME, organism-based, Canis lupus familiaris; conditions: in vivo
[29] = Solubility of the compound in PBS at pH 7.4; type: physicochemical
[30] = tested on: Mus musculus; assay: In vivo inhibition of NLRP3 dependent cytokine production in po dosed LPS-challenged C57BL/6 mouse model assessed as inhibition of LPS-induced IL-18 production in blood pretreated for 1 hr followed by induced with LPS measured after 5 hrs by cytokine bead assay; type: functional, organism-based; conditions: time 6.0 hrs
[31] = AUC (infinity) in Beagle dog at 2 mg/kg, po by LC-MS analysis; type: ADME, organism-based, Canis lupus familiaris; conditions: in vivo

In the case of `CC(C)(O)c1ncc([S@](N)(=O)=NC(=O)Nc2c3c(cc4c2CCC4)CCC3)s1`, the fraction unbound [1] is reported as 0.006, the Activity [2] is reported as “inactive” and the AUC [3] is reported as 49.125 µg·h/mL. For the same compound, the IC50 [4] was over 60 µM, the Activity [5] was “inactive” and the half-life [6] was 9.4 h. It also gave a hepatocyte CLint [7] of 4.2 µL/min/1e6 cells, an IC50 [8] of over 60 µM and a fraction unbound [9] of 0.015. For the same compound, the Vdss [10] was 0.084 L/kg, the TDI [11] was “Not_active” and the inhibition [12] was “Dose-dependent-effect”. The Vdss [13] was 0.188 L/kg, the Vdss [14] was 0.12 L/kg and the inhibition [15] was “Dose-dependent-effect”. For the same compound, the solubility thermodynamic [16] was 21 µg/mL (≈ 49.9 µM), the solubility thermodynamic [17] was 9.1 µg/mL (≈ 21.6 µM) and the IC50 [18] was over 60 µM. The inhibition at 30 µM [19] was 8%, the Activity [20] was “inactive” and the half-life [21] was 2.81 h. The hepatocyte CLint [22] was under 1.9 µL/min/1e6 cells, the IC50 [23] was over 60 µM and the Cmax [24] was 22200 ng/mL. For the same compound, the Activity [25] was “Active”, the IC50 [26] was over 60 µM and the Activity [27] was “Not_active”. For the same compound, the Vdss [28] was 0.16 L/kg, the solubility [29] was 21 µg/mL (≈ 49.9 µM) and the inhibition [30] was “Dose-dependent-effect”. For the same compound, the AUC(0-inf) [31] was 163 µg·h/mL.
